Consider seven compounds from ChEMBL document CHEMBL5465560, “Selectivity Literature for EUbOPEN Chemogenomic Library” (2024).

Each structure is given as a SMILES string.

Experiment [1] concerns the target T1, Serine/threonine-protein kinase Chk1 (Homo sapiens) (UniProt O14757).
T1 sequence (whole entry): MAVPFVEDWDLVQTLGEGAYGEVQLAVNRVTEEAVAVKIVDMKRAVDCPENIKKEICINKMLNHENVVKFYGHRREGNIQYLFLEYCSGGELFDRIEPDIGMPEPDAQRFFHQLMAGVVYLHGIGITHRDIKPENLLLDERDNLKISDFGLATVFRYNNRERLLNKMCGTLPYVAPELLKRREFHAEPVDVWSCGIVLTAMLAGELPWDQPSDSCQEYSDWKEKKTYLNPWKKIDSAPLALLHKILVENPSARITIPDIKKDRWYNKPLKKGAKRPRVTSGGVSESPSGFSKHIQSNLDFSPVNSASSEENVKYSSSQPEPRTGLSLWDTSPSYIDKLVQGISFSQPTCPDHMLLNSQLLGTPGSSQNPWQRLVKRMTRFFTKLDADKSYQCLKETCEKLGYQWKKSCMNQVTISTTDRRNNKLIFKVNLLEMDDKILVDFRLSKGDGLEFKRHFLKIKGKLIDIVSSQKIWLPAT
As to the kind of experiment: Selectivity interaction (Kinase panel (Z-LYTE Assay)) EUB0001632a CHEK1. The following applies: at 10 µM.

In experiment [2] the target is Leucine-rich repeat serine/threonine-protein kinase 2 (Homo sapiens, UniProt Q5S007). As to the kind of experiment: Selectivity interaction (Adapta Assay) EUB0001632a LRRK2. Conditions: at 10 µM.
For experiment [3], the target named is T2, Serine/threonine-protein kinase 3 (Homo sapiens) (UniProt Q13188).
T2 sequence (whole entry): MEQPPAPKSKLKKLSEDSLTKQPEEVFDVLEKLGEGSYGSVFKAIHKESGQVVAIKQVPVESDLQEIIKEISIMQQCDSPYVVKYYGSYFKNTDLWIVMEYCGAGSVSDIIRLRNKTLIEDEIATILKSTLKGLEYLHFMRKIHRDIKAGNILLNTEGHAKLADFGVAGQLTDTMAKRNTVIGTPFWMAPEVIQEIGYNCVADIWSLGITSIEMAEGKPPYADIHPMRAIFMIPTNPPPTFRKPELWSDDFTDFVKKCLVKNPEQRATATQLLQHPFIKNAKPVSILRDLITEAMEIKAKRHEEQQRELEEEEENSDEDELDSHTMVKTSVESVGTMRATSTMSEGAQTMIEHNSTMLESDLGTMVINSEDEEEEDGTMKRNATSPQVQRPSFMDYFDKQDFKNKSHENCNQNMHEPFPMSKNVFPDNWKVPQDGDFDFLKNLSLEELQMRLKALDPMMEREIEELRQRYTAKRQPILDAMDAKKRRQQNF
As to the kind of experiment: Selectivity interaction (KinomeScan (DiscoverX)) EUB0000595a STK3. The following applies: at 10 µM.

The target in experiment [4] is T3, Serine/threonine-protein kinase TAO3 (Homo sapiens) (UniProt Q9H2K8).
T3 sequence (whole entry): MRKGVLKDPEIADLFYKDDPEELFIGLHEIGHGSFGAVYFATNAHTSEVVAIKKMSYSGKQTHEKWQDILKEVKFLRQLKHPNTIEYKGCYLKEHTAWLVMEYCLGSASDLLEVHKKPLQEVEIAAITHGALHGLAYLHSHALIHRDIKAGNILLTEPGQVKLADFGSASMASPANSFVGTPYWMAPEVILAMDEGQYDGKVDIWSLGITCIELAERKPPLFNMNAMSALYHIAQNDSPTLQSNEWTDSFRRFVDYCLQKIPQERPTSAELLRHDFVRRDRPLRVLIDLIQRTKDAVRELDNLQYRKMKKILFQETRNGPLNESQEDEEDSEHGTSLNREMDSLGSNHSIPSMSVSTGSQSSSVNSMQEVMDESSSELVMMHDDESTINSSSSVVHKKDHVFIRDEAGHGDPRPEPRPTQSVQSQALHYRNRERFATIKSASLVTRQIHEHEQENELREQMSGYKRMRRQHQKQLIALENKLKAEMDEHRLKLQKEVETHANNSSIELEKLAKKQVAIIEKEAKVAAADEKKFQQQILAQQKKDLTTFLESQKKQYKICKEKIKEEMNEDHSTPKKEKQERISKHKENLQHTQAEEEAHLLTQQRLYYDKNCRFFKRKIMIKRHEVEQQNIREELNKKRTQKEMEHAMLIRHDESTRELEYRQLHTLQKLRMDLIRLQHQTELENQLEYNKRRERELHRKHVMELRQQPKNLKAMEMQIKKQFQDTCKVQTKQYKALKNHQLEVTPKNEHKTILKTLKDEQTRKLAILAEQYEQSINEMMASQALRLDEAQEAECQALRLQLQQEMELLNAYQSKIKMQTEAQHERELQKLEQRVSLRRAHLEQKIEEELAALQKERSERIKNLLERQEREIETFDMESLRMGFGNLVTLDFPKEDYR
As to the kind of experiment: Selectivity interaction (ActivX KiNativ screen (ex vivo kinase selectivity in human PBMCs)) EUB0001619a TAOK3. Format: cell-based. The following applies: PBMC, at 1 µM.

The target of experiment [5] is T4, Serine/threonine-protein kinase ULK3 (Homo sapiens) (UniProt Q6PHR2).
T4 sequence (whole entry): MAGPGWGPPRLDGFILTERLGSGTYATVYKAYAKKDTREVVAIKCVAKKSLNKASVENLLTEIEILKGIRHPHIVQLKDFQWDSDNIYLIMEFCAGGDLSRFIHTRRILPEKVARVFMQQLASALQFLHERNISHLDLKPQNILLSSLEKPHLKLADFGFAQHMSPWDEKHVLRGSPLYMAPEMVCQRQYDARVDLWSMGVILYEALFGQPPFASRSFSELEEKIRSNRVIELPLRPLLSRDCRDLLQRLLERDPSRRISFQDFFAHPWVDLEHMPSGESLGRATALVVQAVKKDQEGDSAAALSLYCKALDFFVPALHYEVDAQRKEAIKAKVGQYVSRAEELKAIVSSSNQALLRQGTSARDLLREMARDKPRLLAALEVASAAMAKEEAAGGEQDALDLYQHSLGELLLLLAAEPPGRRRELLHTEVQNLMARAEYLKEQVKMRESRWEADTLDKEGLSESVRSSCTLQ
In words: Selectivity interaction (ActivX KiNativ screen (ex vivo kinase selectivity in human PBMCs)) EUB0001619a ULK3. It is filed as cell-based. Conditions: PBMC, at 1 µM.

Experiment [6] concerns the target Microtubule-associated serine/threonine-protein kinase 1 (Homo sapiens) (UniProt Q9Y2H9). As to the kind of experiment: Selectivity interaction (KinomeScan (DiscoverX)) EUB0001619a MAST1. The following applies: at 1 µM.
Experiment [7] deals with Phosphatidylinositol 4-phosphate 5-kinase type-1 alpha (Homo sapiens) (UniProt Q99755). In words: Selectivity interaction (KinomeScan (DiscoverX)) EUB0000045b PIP5K1A.
In experiment [8] the target is Homeodomain-interacting protein kinase 3 (Homo sapiens, UniProt Q9H422). As to the kind of experiment: Selectivity interaction (KinomeScan (DiscoverX)) EUB0001049a HIPK3. Conditions: at 1 µM.
The target in experiment [9] is Cyclin-dependent kinase 18 (Homo sapiens) (UniProt Q07002). As to the kind of experiment: Selectivity interaction (KinomeScan (DiscoverX)) EUB0001079a CDK18. The following applies: at 1 µM.
Experiment [10] deals with Epidermal growth factor receptor (Homo sapiens), P00533 [UNDEFINED MUTATION]. In words: Selectivity interaction (KinomeScan (DiscoverX)) EUB0000229b EGFR. The following applies: at 1 µM.
Epidermal growth factor receptor (Homo sapiens), P00533 [UNDEFINED MUTATION], sequence (P00533 whole entry, looked up, change not shown): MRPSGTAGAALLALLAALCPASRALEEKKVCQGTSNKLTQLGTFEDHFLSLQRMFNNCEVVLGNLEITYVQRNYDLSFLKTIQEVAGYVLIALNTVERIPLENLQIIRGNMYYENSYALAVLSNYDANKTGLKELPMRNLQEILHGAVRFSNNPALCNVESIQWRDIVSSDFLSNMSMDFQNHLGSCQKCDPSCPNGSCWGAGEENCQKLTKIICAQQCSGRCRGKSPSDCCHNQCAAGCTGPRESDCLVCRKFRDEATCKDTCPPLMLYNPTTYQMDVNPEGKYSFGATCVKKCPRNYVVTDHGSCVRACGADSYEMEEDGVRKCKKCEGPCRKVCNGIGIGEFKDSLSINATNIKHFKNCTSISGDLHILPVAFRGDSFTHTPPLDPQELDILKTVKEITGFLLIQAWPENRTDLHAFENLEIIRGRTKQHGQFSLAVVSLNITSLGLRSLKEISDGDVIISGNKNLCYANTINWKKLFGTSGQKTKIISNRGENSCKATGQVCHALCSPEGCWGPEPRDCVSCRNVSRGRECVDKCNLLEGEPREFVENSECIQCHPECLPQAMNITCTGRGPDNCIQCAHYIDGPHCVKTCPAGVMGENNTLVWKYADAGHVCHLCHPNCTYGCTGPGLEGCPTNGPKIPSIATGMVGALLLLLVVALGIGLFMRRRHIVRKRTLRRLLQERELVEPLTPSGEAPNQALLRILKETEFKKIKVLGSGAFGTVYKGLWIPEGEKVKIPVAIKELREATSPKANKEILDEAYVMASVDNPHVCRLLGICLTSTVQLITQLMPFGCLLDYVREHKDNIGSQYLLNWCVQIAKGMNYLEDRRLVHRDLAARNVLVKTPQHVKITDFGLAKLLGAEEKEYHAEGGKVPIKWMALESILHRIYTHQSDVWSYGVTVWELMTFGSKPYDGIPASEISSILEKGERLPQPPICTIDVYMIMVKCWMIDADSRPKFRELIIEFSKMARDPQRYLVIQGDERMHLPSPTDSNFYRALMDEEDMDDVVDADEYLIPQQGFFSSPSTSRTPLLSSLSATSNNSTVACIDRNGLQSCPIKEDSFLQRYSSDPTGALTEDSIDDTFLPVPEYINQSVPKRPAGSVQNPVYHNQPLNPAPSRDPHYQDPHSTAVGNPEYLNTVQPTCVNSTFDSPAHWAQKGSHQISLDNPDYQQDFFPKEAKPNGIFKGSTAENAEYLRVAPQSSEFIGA

Phosphatidylinositol 4-phosphate 5-kinase type-1 alpha (Homo sapiens), sequence (Q99755 whole entry): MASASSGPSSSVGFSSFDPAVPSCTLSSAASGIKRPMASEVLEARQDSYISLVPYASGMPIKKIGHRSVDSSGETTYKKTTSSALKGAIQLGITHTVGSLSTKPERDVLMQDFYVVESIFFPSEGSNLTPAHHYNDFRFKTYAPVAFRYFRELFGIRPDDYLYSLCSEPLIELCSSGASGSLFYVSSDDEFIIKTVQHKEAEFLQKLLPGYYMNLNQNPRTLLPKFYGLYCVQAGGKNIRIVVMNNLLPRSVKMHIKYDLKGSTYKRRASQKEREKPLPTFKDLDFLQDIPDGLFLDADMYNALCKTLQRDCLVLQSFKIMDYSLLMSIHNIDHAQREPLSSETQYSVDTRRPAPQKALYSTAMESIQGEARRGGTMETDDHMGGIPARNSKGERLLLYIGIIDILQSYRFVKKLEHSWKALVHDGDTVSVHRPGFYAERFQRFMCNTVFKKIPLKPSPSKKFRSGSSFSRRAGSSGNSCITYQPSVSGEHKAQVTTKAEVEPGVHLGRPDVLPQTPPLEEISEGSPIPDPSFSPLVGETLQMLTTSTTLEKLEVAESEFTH
Homeodomain-interacting protein kinase 3, sequence (Q9H422 whole entry, looked up): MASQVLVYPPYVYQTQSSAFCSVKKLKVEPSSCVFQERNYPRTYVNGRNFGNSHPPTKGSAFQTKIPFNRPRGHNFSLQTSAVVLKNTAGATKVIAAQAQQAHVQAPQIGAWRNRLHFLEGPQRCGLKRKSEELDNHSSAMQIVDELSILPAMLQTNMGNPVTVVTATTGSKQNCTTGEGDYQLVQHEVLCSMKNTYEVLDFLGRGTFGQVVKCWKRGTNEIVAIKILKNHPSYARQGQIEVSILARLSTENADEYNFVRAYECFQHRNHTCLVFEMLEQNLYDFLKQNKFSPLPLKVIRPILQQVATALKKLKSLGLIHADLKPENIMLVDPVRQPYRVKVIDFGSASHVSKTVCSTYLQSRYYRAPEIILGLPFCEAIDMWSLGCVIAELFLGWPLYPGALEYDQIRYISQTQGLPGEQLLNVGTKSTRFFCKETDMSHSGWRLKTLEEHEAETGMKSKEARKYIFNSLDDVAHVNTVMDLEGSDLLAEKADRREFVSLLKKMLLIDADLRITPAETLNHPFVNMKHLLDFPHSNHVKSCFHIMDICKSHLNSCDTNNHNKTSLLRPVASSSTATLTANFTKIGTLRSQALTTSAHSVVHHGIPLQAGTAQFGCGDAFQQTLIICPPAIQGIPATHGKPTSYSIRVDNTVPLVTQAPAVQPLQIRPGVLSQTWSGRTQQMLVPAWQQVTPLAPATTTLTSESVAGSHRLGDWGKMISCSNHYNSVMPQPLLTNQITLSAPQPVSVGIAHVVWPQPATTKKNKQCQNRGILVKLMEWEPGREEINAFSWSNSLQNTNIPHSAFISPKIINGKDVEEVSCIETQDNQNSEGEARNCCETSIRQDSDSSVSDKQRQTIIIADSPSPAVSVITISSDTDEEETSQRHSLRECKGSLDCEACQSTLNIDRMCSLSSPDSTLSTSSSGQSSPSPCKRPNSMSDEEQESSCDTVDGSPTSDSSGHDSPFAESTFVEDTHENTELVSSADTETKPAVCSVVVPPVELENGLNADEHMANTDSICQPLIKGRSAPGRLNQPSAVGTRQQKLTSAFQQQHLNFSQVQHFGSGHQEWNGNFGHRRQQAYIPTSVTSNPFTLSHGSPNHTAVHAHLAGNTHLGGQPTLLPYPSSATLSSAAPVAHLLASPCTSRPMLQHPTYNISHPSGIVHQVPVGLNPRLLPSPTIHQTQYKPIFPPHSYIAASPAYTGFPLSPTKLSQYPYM
Microtubule-associated serine/threonine-protein kinase 1 (Homo sapiens), sequence (Q9Y2H9 whole entry, looked up): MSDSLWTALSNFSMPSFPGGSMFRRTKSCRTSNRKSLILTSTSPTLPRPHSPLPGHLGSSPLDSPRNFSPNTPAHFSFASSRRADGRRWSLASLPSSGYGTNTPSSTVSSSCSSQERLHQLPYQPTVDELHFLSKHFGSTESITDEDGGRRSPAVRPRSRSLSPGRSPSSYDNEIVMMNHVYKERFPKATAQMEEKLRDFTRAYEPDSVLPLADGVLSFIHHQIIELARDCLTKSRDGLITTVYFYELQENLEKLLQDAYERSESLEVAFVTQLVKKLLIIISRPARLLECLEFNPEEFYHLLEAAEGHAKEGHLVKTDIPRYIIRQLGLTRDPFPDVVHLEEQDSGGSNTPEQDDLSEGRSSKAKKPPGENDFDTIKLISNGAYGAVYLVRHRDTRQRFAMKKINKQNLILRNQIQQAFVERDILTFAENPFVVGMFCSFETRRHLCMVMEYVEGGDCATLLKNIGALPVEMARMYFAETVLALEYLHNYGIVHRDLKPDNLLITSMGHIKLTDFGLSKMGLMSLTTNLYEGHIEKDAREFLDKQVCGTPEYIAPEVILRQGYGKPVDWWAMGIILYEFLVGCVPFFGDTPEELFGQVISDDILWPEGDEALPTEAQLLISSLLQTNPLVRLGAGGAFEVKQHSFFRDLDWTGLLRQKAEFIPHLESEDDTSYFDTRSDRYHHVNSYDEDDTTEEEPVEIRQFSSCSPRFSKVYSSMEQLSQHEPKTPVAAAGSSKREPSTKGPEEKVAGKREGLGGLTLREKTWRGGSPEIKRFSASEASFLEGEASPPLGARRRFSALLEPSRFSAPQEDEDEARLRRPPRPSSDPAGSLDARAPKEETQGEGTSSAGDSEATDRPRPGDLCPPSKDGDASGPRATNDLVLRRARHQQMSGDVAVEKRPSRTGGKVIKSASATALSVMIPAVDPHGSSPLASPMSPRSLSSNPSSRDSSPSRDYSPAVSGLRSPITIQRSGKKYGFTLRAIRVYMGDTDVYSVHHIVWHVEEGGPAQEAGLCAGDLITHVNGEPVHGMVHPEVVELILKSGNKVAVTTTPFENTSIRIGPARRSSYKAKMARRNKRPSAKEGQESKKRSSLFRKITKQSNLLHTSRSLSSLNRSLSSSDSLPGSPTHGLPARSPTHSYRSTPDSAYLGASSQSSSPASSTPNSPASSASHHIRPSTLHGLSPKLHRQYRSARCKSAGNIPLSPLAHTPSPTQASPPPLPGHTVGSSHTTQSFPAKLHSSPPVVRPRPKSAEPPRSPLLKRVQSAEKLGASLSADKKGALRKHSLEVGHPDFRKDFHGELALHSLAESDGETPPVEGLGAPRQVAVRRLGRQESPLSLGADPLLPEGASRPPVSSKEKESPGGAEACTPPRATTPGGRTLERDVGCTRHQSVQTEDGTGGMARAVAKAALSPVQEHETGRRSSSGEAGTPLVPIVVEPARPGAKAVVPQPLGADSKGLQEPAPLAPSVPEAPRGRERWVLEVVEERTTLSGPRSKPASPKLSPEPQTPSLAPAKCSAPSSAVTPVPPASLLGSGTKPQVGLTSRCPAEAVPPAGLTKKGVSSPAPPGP
Cyclin-dependent kinase 18 (Homo sapiens), sequence (Q07002 whole entry): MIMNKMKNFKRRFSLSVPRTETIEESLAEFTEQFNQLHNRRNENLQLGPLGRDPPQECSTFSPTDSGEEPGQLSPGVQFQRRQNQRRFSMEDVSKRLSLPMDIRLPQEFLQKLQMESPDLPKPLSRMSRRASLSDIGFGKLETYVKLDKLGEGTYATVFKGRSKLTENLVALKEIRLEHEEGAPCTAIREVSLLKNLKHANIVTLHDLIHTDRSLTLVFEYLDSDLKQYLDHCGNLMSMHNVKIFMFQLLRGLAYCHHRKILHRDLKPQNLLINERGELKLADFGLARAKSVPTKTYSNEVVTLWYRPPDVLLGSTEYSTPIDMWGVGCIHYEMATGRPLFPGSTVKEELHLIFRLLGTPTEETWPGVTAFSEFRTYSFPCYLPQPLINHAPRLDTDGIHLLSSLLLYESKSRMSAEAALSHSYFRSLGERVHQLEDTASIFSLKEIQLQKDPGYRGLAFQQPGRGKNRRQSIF

As to `Cn1cc(-n2cnc3c(NCc4nc5cc(Cl)c(Cl)cc5[nH]4)nc(N4CCOCC4)nc32)cn1`, in experiment [1], the % of control turned out to be 37.8%. Further, in [2], the % of inhibition turned out to be 100%.
`COCC(=O)NC/C=C/c1ccc2ncnc(Nc3ccc(Oc4ccc(C)nc4)c(C)c3)c2c1` [CP-724714] came in with a % of control in experiment [3] of 82%.
As to `N#Cc1cccc(-c2c[nH]c3ncnc(N4CCOCC4)c23)c1`, the % of inhibition turned out to be 6% in experiment [4] and 5% in experiment [5]. In experiment [6], this compound came in with a % of control of 73%.
With `C=CC(=O)Nc1cc(-n2c(=O)ccc3cnc4ccc(-c5ccc(NS(C)(=O)=O)cc5)cc4c32)ccc1C`, the % of control in experiment [7] (at 1 µM) stood at 100%; in [7] (at 10 µM) it was 54%.
In experiment [8], `COc1cc(Nc2nc(C)cc(-c3cnn4nc(OC)ccc34)n2)cc(C(F)(F)F)c1` yielded a % of control of 95%.
In the case of `Nc1cnc(N2CCc3cc(S(=O)(=O)Nc4c(F)cc(Cl)cc4F)cc(N4CCCC4=O)c32)nc1` [TP-020n], the % of control in [9] worked out at 100%.
Take `COc1cc(N(C)c2ccnc3ccc(C(F)(F)F)cc23)cc(OC)c1OC`: the % binding in experiment [10] came to 97%.
